Activity calls are given as the source filed them. The calls are words filed in the database; no cut-off is given here.
Tests used:
[1] = target: T1, G-protein coupled receptor 39 (Homo sapiens) (UniProt O43194); experiment: Agonist activity at GPR39 in human HT-29 cells assessed as cAMP accumulation up to 30 uM; format: functional, cell-based
T1 sequence (whole entry): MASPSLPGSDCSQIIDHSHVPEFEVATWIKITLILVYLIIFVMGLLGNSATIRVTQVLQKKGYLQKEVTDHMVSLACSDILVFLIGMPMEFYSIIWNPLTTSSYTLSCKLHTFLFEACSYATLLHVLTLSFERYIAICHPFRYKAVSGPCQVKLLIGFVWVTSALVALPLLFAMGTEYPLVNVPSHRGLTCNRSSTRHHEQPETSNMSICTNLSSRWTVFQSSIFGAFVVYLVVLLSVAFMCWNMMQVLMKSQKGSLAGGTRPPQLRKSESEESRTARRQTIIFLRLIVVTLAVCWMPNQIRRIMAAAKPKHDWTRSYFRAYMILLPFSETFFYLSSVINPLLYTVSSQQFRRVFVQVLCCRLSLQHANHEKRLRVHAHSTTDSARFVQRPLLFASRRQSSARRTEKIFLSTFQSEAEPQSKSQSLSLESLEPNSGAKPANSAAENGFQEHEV

[2] = target: T1, G-protein coupled receptor 39 (Homo sapiens); experiment: Agonist activity at GPR39 in human HT-29 cells assessed as intracellular Ca2+ mobilization up to 30 uM after 72 hrs by FLIPR assay; format: functional, cell-based
[3] = target: T1, G-protein coupled receptor 39 (Homo sapiens); experiment: Agonist activity at recombinant human GPR39 expressed in CHO-K1 cells assessed as increase of Zn2+-induced cAMP production preincubated for 30 mins measured after 60 mins relative to Zn+2; format: functional, cell-based
[4] = target: T1, G-protein coupled receptor 39 (Homo sapiens); experiment: Agonist activity at recombinant human GPR39 expressed in CHO-K1 cells assessed as increase of Zn2+-induced intracellular Ca+2 mobilization after 1 hr by Fluo-4 No staining-based FLIPR assay relative to Zn+2; format: cell-based
[5] = target: T2, Protein Gpr39 (Rattus norvegicus) (UniProt A6QR73); experiment: Agonist activity at GPR39 in rat INS-1 cells assessed as effect on glucose-stimulated insulin secretion; format: cell-based; conditions: INS1
T2 sequence (whole entry): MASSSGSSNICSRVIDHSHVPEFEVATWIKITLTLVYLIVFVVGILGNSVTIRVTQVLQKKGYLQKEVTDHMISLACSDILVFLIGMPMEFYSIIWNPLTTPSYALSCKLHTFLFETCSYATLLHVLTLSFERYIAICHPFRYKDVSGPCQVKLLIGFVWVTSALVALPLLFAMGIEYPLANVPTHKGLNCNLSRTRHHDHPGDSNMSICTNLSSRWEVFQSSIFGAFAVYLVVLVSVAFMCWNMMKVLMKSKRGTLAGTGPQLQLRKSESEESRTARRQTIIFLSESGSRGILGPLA

[6] = target: T1, G-protein coupled receptor 39 (Homo sapiens); experiment: Agonist activity at GPR39 in human islets assessed as 11.2 mM glucose-stimulated insulin secretion up to 10 uM after 1 hr
[7] = target: T1, G-protein coupled receptor 39 (Homo sapiens); experiment: Agonist activity at GPR39 in human islets assessed as 2.8 mM glucose-stimulated insulin secretion up to 10 uM after 0.75 hrs
[8] = target: T1, G-protein coupled receptor 39 (Homo sapiens); experiment: Agonist activity at GPR39 in human HT-29 cells assessed as cAMP accumulation; format: functional, cell-based
[9] = target: T1, G-protein coupled receptor 39 (Homo sapiens); experiment: Agonist activity at GPR39 in human HT-29 cells assessed as intracellular Ca2+ mobilization after 72 hrs by FLIPR assay in presence of siRNA; format: functional, cell-based
[10] = target: T3, G-protein coupled receptor 39 (Homo sapiens, UniProt O43194); experiment: Agonist activity at GPR39 in human HT-29 cells assessed as increase in intracellular Ca2+ mobilization after 72 hrs by FLIPR assay; format: functional, cell-based
T3 sequence (O43194 whole entry): T1 sequence (whole entry)

[11] = target: cGMP-inhibited 3',5'-cyclic phosphodiesterase 3B (Homo sapiens, UniProt Q13370); experiment: Inhibition of PDE3B (unknown origin)
[12] = target: cGMP-inhibited 3',5'-cyclic phosphodiesterase 3A (Homo sapiens, UniProt Q14432); experiment: Inhibition of PDE3a (unknown origin)
[13] = target: T3, G-protein coupled receptor 39; experiment: Agonist activity at recombinant human GPR39 expressed in CHO-K1 cells assessed as increase of Zn2+-induced cAMP production preincubated for 30 mins measured after 60 mins; format: functional, cell-based
[14] = Apparent permeability across MDCK cells; format: ADME, cell-based, Canis lupus familiaris; conditions: dog
[15] = target: T3, G-protein coupled receptor 39; experiment: Agonist activity at recombinant human GPR39 expressed in CHO-K1 cells assessed as increase of Zn2+-induced intracellular Ca+2 mobilization after 1 hr by Fluo-4 No staining-based FLIPR assay; format: cell-based
[16] = Apparent permeability of the compound; format: physicochemical; conditions: not told

Sequence of cGMP-inhibited 3',5'-cyclic phosphodiesterase 3A (Q14432 whole entry): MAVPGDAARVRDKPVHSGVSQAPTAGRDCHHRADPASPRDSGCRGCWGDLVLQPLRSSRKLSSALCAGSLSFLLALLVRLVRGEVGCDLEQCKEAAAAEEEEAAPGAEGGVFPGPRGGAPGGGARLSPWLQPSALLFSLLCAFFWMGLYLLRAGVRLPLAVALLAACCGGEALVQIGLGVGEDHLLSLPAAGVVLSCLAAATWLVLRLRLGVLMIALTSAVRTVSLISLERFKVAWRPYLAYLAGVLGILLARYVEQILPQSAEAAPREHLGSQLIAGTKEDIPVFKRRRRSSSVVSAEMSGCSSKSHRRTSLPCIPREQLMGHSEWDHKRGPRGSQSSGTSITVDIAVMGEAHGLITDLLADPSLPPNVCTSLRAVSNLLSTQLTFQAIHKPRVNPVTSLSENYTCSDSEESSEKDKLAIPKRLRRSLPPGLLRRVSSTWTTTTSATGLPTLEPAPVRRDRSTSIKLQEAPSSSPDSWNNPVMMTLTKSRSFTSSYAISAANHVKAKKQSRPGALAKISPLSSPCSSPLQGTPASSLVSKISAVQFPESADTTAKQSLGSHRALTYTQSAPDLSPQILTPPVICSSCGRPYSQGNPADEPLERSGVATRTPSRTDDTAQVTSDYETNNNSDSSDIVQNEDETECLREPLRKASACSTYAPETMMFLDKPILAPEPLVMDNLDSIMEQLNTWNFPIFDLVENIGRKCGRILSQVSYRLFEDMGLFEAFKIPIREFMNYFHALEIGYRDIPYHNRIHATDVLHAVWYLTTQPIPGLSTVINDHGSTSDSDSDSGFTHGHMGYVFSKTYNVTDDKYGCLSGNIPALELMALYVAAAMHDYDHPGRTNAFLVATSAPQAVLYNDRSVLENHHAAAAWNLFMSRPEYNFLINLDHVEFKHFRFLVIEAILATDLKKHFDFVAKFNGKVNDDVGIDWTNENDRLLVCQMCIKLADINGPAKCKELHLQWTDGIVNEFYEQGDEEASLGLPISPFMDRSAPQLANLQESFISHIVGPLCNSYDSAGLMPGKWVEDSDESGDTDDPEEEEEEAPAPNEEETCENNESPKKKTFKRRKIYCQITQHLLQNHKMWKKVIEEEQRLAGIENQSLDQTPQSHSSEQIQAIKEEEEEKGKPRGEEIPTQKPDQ
Sequence of cGMP-inhibited 3',5'-cyclic phosphodiesterase 3B (Q13370 whole entry): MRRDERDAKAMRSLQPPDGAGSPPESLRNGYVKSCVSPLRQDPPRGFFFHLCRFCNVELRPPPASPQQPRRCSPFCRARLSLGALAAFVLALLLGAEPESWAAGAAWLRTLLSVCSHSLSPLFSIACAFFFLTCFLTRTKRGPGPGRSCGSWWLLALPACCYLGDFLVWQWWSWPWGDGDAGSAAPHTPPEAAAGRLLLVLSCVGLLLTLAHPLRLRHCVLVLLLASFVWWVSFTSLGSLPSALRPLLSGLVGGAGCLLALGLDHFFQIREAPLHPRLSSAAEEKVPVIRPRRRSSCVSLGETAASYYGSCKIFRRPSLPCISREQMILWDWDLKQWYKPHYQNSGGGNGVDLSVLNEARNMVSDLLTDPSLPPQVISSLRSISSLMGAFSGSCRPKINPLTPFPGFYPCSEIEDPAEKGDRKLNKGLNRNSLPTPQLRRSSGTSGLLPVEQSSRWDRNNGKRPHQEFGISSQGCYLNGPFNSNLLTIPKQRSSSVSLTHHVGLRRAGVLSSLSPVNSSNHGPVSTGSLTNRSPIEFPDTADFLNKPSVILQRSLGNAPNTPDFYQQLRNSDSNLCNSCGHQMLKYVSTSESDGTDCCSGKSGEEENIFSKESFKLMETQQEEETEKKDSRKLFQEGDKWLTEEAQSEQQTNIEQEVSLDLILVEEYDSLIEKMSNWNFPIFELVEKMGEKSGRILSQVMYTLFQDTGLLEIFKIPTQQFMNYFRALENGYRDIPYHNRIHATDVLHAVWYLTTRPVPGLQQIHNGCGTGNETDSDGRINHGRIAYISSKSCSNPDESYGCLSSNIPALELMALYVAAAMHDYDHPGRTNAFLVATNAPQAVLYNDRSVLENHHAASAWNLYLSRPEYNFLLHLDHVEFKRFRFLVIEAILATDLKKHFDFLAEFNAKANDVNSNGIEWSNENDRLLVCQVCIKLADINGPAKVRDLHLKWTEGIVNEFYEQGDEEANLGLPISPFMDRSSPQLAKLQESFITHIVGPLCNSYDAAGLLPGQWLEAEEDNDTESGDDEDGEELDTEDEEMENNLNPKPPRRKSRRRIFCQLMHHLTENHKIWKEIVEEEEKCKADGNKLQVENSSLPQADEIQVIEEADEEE

Row | Activity [1] | Activity [2] | Efficacy [3] | Efficacy [4] | EC50 [13] | EC50 [15] | Papp [16] | Structure (SMILES) | further results
1 | inactive | inactive | 99% | 74% | – | – | – | CCc1nc(CN2C[C@@H](C(=O)NCc3ccccc3Cl)[C@H](c3cccnc3)C2)c[nH]1 | –
2 | inactive | inactive | 107% | 66% | – | – | – | CCc1nc(CN2C[C@H](C(=O)NCc3ccccc3Cl)[C@@H](c3cccnc3)C2)c[nH]1 | –

More lines, now with the values behind:

Row | Structure (SMILES) | Activity [1] | Activity [2] | Efficacy [3] | Efficacy [4] | EC50 [13] | EC50 [15] | Papp [16] | further results
3 | N#Cc1ccc(N2CCN(Cc3cn4cc(Cl)ccc4n3)CC2)nc1 | – | – | 100% | 76% | 12000 nM | 56 nM | – | Activity [5]: inactive; Activity [6]: inactive; Activity [7]: inactive; Activity [8]: inactive; Activity [9]: inactive; EC50 [10]: 900 nM; IC50 [11]: 24000 nM; IC50 [12]: 15000 nM; Papp [14]: 7.6 ×10⁻⁶ cm/s
4 | CCc1ncc(CN2C[C@@H](C(=O)NCc3ccccc3Cl)[C@H](c3cccnc3)C2)[nH]1 | – | – | – | – | 840 nM | 190 nM | 0.8 ×10⁻⁶ cm/s | –
5 | CCc1ncc(CN2C[C@H](C(=O)NCc3ccccc3Cl)[C@@H](c3cccnc3)C2)[nH]1 | – | – | – | – | 310 nM | 320 nM | 1.2 ×10⁻⁶ cm/s | –
6 | COc1cccc([C@@H]2CCN(CCc3ccccc3)C[C@H]2C(=O)NCCc2ccccn2)c1 (racemic) | – | – | 107% | 82% | 4500 nM | 3100 nM | 3.1 ×10⁻⁶ cm/s | –
